Test results: article PMC10215749, “Determination of the affinity constants for phage display albumin-binding peptides” (PeerJ, 2023)

What was measured:
HSA [1] = molecular target: T1, HSA (Homo sapiens, UniProt P02768); test: Phage clone binding to HSA, specificity ratio by phage titer; design: purchased Sigma; settings: for Blank control phage titre: single clone eluted from blank control well; for Blank control phage titre / Elute phage titre (HSA-coated well): input 1.16 × 10^12 (HSA-3), 1.34 × 10^13 (HSA-4) pfu/ml; for Elute phage titre (HSA-coated well): single clone
Procedure: After rapid washing three times with TBST (TBS + 0.1% [v/v] Tween-20), 100 µL of the diluted phage library (∼2 × 10^11 phage) was added to the well of the coated plate and rocked gently to let them absorb for 60 min. Following 10 washes with TBST, the bound phages were eluted with 0.2 M Gly-HCl, pH 2.2. The 100 µL that was eluted was neutralized with 15 µL Tris–HCl (1 M, pH 9.1) immediately. A small amount of eluted phage was titered as described above and the rest of elutes were added to 20 ml ER2738 culture (OD 600∼0.5) to be amplified 4.5 h at 37 °C for the next round.
To evaluate the efficiency of the phage display panning procedure, we created two selection criteria: the recovery yield and the specificity ratio. The recovery yield is the ratio of the titer of the eluted phage to the input phage. The specificity ratio is the ratio of the titer of the eluted phage from the target coated well to the blank control well. Recovery Y ield%=Elutephagetiterfromtarget/Inputphagetiter×100 Specificity Ratio=Elutephagetiterfromtarget/Elutephagetiterfromblank.
The amplified culture of phage clones was transferred to a 50 mL centrifuge tube and centrifuged for 10 min at 10,000 rpm at 4 °C with a high-speed refrigerated centrifuge (Himac CR21G). The supernatant was decanted to a fresh tube and precipitated by 1/5 volume of PEG/-NaCl (20% [w/v] Polyethylene Glycol–8000, 2.5 M NaCl) at 4 °C overnight and centrifuged for 20 min at 10,000 rpm. The supernatant was discarded and the sediment containing phage was suspended with TBS. To precipitate the phage again, a 1/5 volume of PEG/NaCl was added to the culture and it was stored at 4 °C for at least 60 min. The PEG suspension was centrifuged for 10 min at 10,000 rpm, the phage precipitate was suspended in 500 µL of TBS.
The sequences of HSA-binding peptides were determined by DNA sequencing of the selected phage using −96 gIII sequencing primer 5′-[…]-3′ in the Ph.D-7 phage library.
The specificity ratio was used to determine if positive phage clones with high HSA-binding affinity were isolated. […] We tested the selected clones with significant specificity ratios as potential HSA-binders, after screening many phage clones that consisted of microplate-surface-binding phages, the specific and non-specific target-binding phages, from the target-binding plate as shown in Table 3. The two selected clones, HSA-3 and HSA-4, show specificity ratios of 7.4 and 9.8, respectively, confirming that our method in the panning process is effective.

HSA [2] = molecular target: T1, HSA; test: Relative dissociation constant of peptide-fused phage by double-reciprocal plot of phage titers
Procedure: A single E. coli ER2738 colony was inoculated into 10 mL LB-Tet medium and incubated at 37 °C by shaking until mid-log phase (OD600∼0.5) for phage titering. Phage solutions were diluted 10-fold serially in TBS (50 mM Tris–HCl, pH 7.5, 150 mM NaCl) and aliquots of these solutions (50 µL) were added to a suspension of the prepared ER2738 cells (450 µL), 1 for each phage dilution. The phage-infected ER2738 cells (100 µL) were then poured from each dilution tube to an LB-Tet-IPTG-X-gal plate and the plates were incubated overnight at 37 °C. We determined the number of phage particles contained in the original stock phage culture by counting the number of plaques formed on the seeded agar plate and multiplying this by the dilution factor.
The concentration of bound phage [ ϕT] and free phage [ ϕ] can be calculated from the mass conservation equation, where [ ϕ] T is the total concentration of input phage and the concentration of target bound phage [ ϕT] can be estimated by eluted phage concentration [ ϕ] e, which is very much less than [ ϕ] T in our experiment. (6) ϕ=ϕt−ϕe≈ϕt (7) ϕT≈ϕe.
A double reciprocal plot of phage-target affinity measurement is generated by plotting 1/[ ϕ] e as a function of 1/[ ϕ] t. The slope is Kd/[T], the intercept on the vertical axis is 1/[T], and the intercept on the horizontal axis is −1/ Kd. […] (8) 1/ϕe=Kd/Tϕt+1/T.
Then TBST buffer wash the unbound phages, followed by the elution of the bound phages to the well with glycine-HCl, pH2.2. The concentration of input and eluted phage was quantitated by titration. […] These phage-fused peptides were subjected to DNA sequencing and their corresponding heptapeptide sequences are also shown in Table 3.

Human serum albumin [3] = molecular target: T2, Human serum albumin (human, UniProt P02768 25-609); test: phage binding to coated microplate, read by phage titer (specificity ratio); HSA coated in microplate wells, no blocking protein; purified phage clone added, washed with TBST, eluted with Gly-HCl pH 2.2 and titered; ratio of the eluted titer from the HSA well to that from a blank well; settings: both partners purified
T2 construct: human serum albumin (HSA), bought from Sigma, coated on microplate wells; also called HSA; HSA target; source: bought: Sigma

Human serum albumin [4] = molecular target: T2, Human serum albumin; test: phage binding to coated microplate, read by phage titer (double reciprocal plot); constant HSA coated in microtiter wells, varying input phage until equilibrium, TBST wash, elution with glycine-HCl pH 2.2, input and eluted phage titered; relative dissociation constant = slope/intercept of 1/eluted against 1/input; settings: both partners purified

ITPLPLR [HSA-4]
Blank control phage titre (HSA [1]): 5.22 × 10^5 pfu/ml
Elute phage titre (HSA-coated well) (HSA [1]): 5.12 × 10^6 pfu/ml
Specificity ratio (HSA [1]; titer of eluted phage from target coated well / from blank control well): 9.8
Elute phage titer Φe (HSA [2]; HSA-4, sample 1, input 5.90×10^13 pfu/L): 5.0×10^6 pfu/L
Elute phage titer Φe (HSA [2]; HSA-4, sample 2, input 3.88×10^13 pfu/L): 4.32×10^6 pfu/L
Elute phage concentration [Φ]e (HSA [2]; HSA-4, sample 2, input concentration printed 1.55×10^7 mol/L): 1.4e-14 mol/L
Elute phage titer Φe (HSA [2]; HSA-4, sample 3, input 2.93×10^13 pfu/L): 2.87×10^6 pfu/L
Elute phage concentration [Φ]e (HSA [2]; HSA-4, sample 3, input concentration printed 2.05×10^7 mol/L): 2.1e-14 mol/L
Elute phage titer Φe (HSA [2]; HSA-4, sample 4, input 2.48×10^13 pfu/L): 2.8×10^6 pfu/L
Elute phage concentration [Φ]e (HSA [2]; HSA-4, sample 4, input concentration printed 2.44×10^7 mol/L): 2.2e-14 mol/L
Elute phage titer Φe (HSA [2]; HSA-4, sample 5, input 2.10×10^13 pfu/L): 2.16×10^6 pfu/L
Elute phage concentration [Φ]e (HSA [2]; HSA-4, sample 5, input concentration printed 2.86×10^7 mol/L): 2.8e-14 mol/L
Kd (HSA [2]; read-out: Relative dissociation constant, phage-fused peptide vs immobilized HSA, double-reciprocal plot 1/[Φ]e vs 1/[Φ]t, linear regression, elution glycine-HCl pH 2.2): 388 nM

AESQKLN [HSA-3]
Blank control phage titre (HSA [1]): 1.24 × 10^5 pfu/ml
Elute phage titre (HSA-coated well) (HSA [1]): 9.16 × 10^5 pfu/ml
Elute phage titer Φe (HSA [2]; HSA-3, sample 1, input 1.13×10^14 pfu/L): 7.94×10^6 pfu/L
Elute phage titer Φe (HSA [2]; HSA-3, sample 2, input 5.8×10^13 pfu/L): 7.5×10^6 pfu/L
Elute phage concentration [Φ]e (HSA [2]; HSA-3, sample 2, input concentration printed 1.03×10^7 mol/L): 7.98e-13 mol/L
Elute phage titer Φe (HSA [2]; HSA-3, sample 3, input 3.36×10^13 pfu/L): 5.68×10^6 pfu/L
Elute phage concentration [Φ]e (HSA [2]; HSA-3, sample 3, input concentration printed 1.79×10^7 mol/L): 1.06e-14 mol/L
Elute phage concentration [Φ]e (HSA [2]; HSA-3, sample 4): 2.39e-14 mol/L
Elute phage titer Φe (HSA [2]; HSA-3, sample 4, input 2.16×10^13 pfu/L): 2.52×10^6 pfu/L
Elute phage titer Φe (HSA [2]; HSA-3, sample 5, input 1.52×10^13 pfu/L): 2×10^6 pfu/L
Elute phage concentration [Φ]e (HSA [2]; HSA-3, sample 5, input concentration printed 3.99×10^7 mol/L): 3.03e-14 mol/L

B1: HSA-3 peptide fused phage (peptide)
peptide: AESQKLN
notes: DNA GCGGAGAGTTAGAAGCTTAAT (TAG printed as Q); Measured as the peptide on whole phage, not as a free peptide; source: M13 phage clone from the Ph.D.-7 library, amplified in E. coli ER2738, purified (PEG/NaCl precipitation)
specificity ratio (Human serum albumin [3]): 7.4
Kd (Human serum albumin [4]): 529 nM
